Measured values taken from patent US8821875B2, “Pharmaceutical composition comprising antibodies against catalase and superoxide dismutase for tumor therapy” (Universitaetsklinikum Freiburg, priority 2011, dated 2014).

B1: exogenous catalase: 1000 U/ml catalase from ox liver, added exogenously (protein, UniProt P00432 2-527, looked up)
Catalase: ADNRDPASDQMKHWKEQRAAQKPDVLTTGGGNPVGDKLNSLTVGPRGPLLVQDVVFTDEMAHFDRERIPERVVHAKGAGAFGYFEVTHDITRYSKAKVFEHIGKRTPIAVRFSTVAGESGSADTVRDPRGFAVKFYTEDGNWDLVGNNTPIFFIRDALLFPSFIHSQKRNPQTHLKDPDMVWDFWSLRPESLHQVSFLFSDRGIPDGHRHMNGYGSHTFKLVNANGEAVYCKFHYKTDQGIKNLSVEDAARLAHEDPDYGLRDLFNAIATGNYPSWTLYIQVMTFSEAEIFPFNPFDLTKVWPHGDYPLIPVGKLVLNRNPVNYFAEVEQLAFDPSNMPPGIEPSPDKMLQGRLFAYPDTHRHRLGPNYLQIPVNCPYRARVANYQRDGPMCMMDNQGGAPNYYPNSFSAPEHQPSALEHRTHFSGDVQRFNSANDDNVTQVRTFYLKVLNEEQRKRLCENIAGHLKDAQLFIQKKAVKNFSDVHPEYGSRIQALLDKYNEEKPKNAVHTYVQHGSHLSAREKANL

Legend:
[1] = system: human Ewing's sarcoma line SKN-MC; test: Induction of apoptosis in Ewing's sarcoma line SKN-MC and inhibitor analysis; format: cell-based; settings: 3 hours, inhibitor concentrations; for effect of inhibitor on anti-catalase-induced apoptosis: FIG. 13A; for effect of inhibitor on anti-SOD-induced apoptosis: FIG. 13B
Procedure: To 12 500 cells of the human neuroblastoma line SHEP and the human Ewing's sarcoma line SKN-MC in […] EMEM plus 5% FBS the given concentrations of anti-catalase and anti-SOD, respectively, were added. The percentages of apoptotic cells were determined after 5 hours (SHEP) and 5.5 hours (SKNMC), respectively.
To 10 000 cells of the human Ewing's sarcoma line SKN-MC in […] EMEM plus 5% FBS the given inhibitors and the concentrations of anti-catalase and anti-SOD, respectively, plotted in the abscissa were added. The percentages of apoptotic cells were determined after 3 hours.
Inhibitors: 50 mM taurine (HOCl scavenger); […] (peroxynitrite decomposition catalyst); 1000 U/ml catalase from ox liver; 40 mM MnTE2PyP(SOD mimetic); 90 U/ml MnSOD; 20 mM 3-Br-7-nitroindazole (nNOS specific inhibitor).

[2] = system: MKN-45 cells; test: Inhibitor analysis of antibody-induced apoptosis in MKN-45 cells (ROS signaling); format: cell-based, human; settings: for effect of inhibitor on apoptosis induced by monoclonal antibody against catalase: MKN-45, 2 hours, FIG. 8; for effect of inhibitor on anti-SOD-induced apoptosis: MKN-45, 6 hours, inhibitor concentrations of b79
Procedure: To 12 500 MKN-45 cells in […] RPMI 1640 medium, 10% FBS the given concentrations of the monoclonal antibodies against catalase as well as the mentioned inhibitors were added and the incubation was continued for 2 hours at 37° C., 5% CO2, before in duplicates the percentages of apoptotic cells were determined.
To 12 500 MKN-45 cells in […] RPMI 1640 medium, 10% FBS the given concentrations of the monoclonal antibodies against catalase and the given concentrations of the salen-manganese complex EUK-134 (chloro[[2,2′-[1,2-ethanediylbis[(nitrilo-κN)methylidyne]]bis[6-methoxyphenolato-κO]]]-manganese) (a catalase mimetic) were added and the incubation was continued for 2.5 hours at 37° C., 5% CO2. Subsequently, the percentage of apoptotic cells (duplicates) was determined according to the conventional apoptosis criteria membrane blebbing, nuclear condensation and/or nuclear fragmentation.
To 12 500 MKN-45 cells in […] RPMI 1640 medium, 10% FBS the given concentrations of monoclonal antibodies against SOD and the given inhibitors were added and the incubation was continued for 6 hours at 37° C., 5% CO2. Subsequently, the percentage of apoptotic cells (duplicates) was determined according to the conventional apoptosis criteria membrane blebbing, nuclear condensation, and/or nuclear fragmentation.
Inhibitors: […] FeTPPS (peroxynitrite decomposition catalyst); 75 U/ml MnSOD; 50 mM taurine (HOCl scavenger); 2.4 mM L-NAME (NOS inhibitor).

[3] = system: MKN-45 cells; test: Synergistic effect of anti-catalase and anti-SOD in induction of apoptosis in MKN-45 cells; format: cell-based, human; settings: 2 mM histidine, MKN-45, 3 hours, FIG. 18
Procedure: 12 500 MKN-45 cells in […] RPMI 1640 medium, 10% FBS received the given concentrations of anti-catalase. Control batches remained free of additional batches, batches for determination of the interaction additionally received 0.5 ng/ml or 2 ng/ml anti-SOD. The percentages of apoptotic cells were determined after 5.5 hours in duplicates.
This is unexpected and of great interest, since on its basis a considerable saving of antibodies could be achieved with the same effect. So, for example the combination of 2 ng/ml anti-SOD with 2 ng/ml anti-catalase results in 80 percent of the effect that can be achieved with 125 ng/ml of anti-catalase antibodies alone. 12 500 MKN-45 cells in […] RPMI 1640 medium, 10% FBS received the given concentrations of anti-catalase (control), anti-catalase plus 2 mM histidine (singlet oxygen scavenger), anti-catalase plus 1 ng/ml anti-SOD, anti-catalase/1 ng/ml anti-SOD/2 mM histidine. The percentages of apoptotic cells are determined after 3 hours in duplicates.
12 500 MKN-45 cells in […] RPMI 1640 medium, 10% FBS received the given concentrations of the Fab fragment AbD15562 directed against catalase. […] The percentages of apoptotic cells were determined after 3 hours in duplicates.

Molecule	effect of inhibitor on anti-catalase-induced apoptosis [1]	effect of inhibitor on anti-SOD-induced apoptosis [1]	effect of inhibitor on apoptosis induced by monoclonal antibody against catalase ([2]; inhibitor concentrations)	effect of inhibitor on anti-SOD-induced apoptosis ([2]; FIG. 10)	also measured
O=[N+]([O-])c1cccc2c(Br)n[nH]c12 [3-Br-7-nitro-indazole, 3-bromo-7-nitroindazole]	inhibition	inhibition			
NCCc1ccc(S(=O)(=O)F)cc1 [AEBSF, 4-(2-aminoethyl)-benzenesulfonyl fluoride]			inhibited		
COc1cccc(C=NCCN=Cc2cccc(OC)c2[O-])c1[O-].[Cl-].[Mn+3] [EUK-134]					effect on anti-catalase-induced apoptosis ([2]; 0.25 μM EUK-134, middle concentration range of the antibody, FIG. 9): stronger inhibition; effect on anti-catalase-induced apoptosis ([2]; 0.25 mM EUK-134, lower concentration range of the antibodies, FIG. 9): significant increase in apoptosis; effect on concentration curve of anti-catalase-induced apoptosis ([2]; 0.06 and 0.125 mM EUK-134, MKN-45, 2.5 hours, FIG. 9): change the optimum curve into a plateau curve; effect on anti-catalase-induced apoptosis ([2]; two next higher concentrations of EUK-134, middle concentration range of the antibody, FIG. 9): complete inhibition of the HOCl pathway
Cl.O=S(=O)([O-])c1ccc(-c2c3nc(c(-c4ccc(S(=O)(=O)O)cc4)c4ccc([nH]4)c(-c4ccc(S(=O)(=O)O)cc4)c4nc(c(-c5ccc(S(=O)(=O)O)cc5)c5ccc2[nH]5)C=C4)C=C3)cc1.[Fe] [FeTPPS, 5-, 10-, 15-, 20-tetrakis(4-sulfonatophenyl)porphyrinato iron(III) chloride]	inhibition	inhibition	inhibited in the lower concentration range of the antibody	inhibition	
COC(=O)[C@@H](N)CCCNC(=N)N[N+](=O)[O-].Cl [L-NAME, N-ω-nitro-L-arginine methylester hydrochloride]			inhibited in the lower concentration range of the antibody	inhibition	
CC[n+]1ccccc1-c1c2nc(c(-c3cccc[n+]3CC)c3ccc([n-]3)c(-c3cccc[n+]3CC)c3nc(c(-c4cccc[n+]4CC)c4ccc1[n-]4)C=C3)C=C2.[Cl-].[Cl-].[Cl-].[Cl-].[Cl-].[Mn+3] [MnTE2PyP, Mn(III) meso-tetrakis(N-ethyl-2-pyridyl)porphyrin pentachloride]	inhibition	inhibition			
N[C@@H](Cc1c[nH]cn1)C(=O)O [histidine]					blocking of the supra-optimum drop of the concentration-dependent curves [3]: can be blocked; blocking of the synergistic effect between anti-SOD and anti-catalase [3]: cannot be blocked
NCCS(=O)(=O)O [taurine]	lacking inhibitory effect	lacking inhibitory effect		lacking inhabitability	effect on the NO/peroxynitrite pathway in anti-SOD-induced apoptosis ([2]; MKN-45, 50 mM taurine, FIG. 10): enhancing effect; effect of inhibitor on apoptosis induced by monoclonal antibody against catalase ([2]; higher antibody concentration (HOCl pathway)): inhibitory effect
B1	compensated	compensated			
